Results published in patent US6686385B2, “Anhydro sugar derivatives of indolocarbazoles” (Bristol-Myers Squibb Company, priority 2000, dated 2004).

Columns and labels:
[1] = tested on: murine P388 cell line; assay: In vitro cell-based cytotoxicity / proliferation inhibition (XTT assay); settings: Mus musculus, 72 hrs incubation, absorbance at 450 nm
Procedure: The proliferation inhibition activity against murine P388 cell line was measured as follow. […] The cells were incubated at 37° C. for 72 hrs at which time the tetrazolium dye, XTT, containing phenazine methosulfate was added. A dehydrogenase enzyme in live cells reduoes the XTT to a form that absorbs light at 450 nm which can be quantitated spectrophotometrically. The greater the absorbance the greater the number of live cells. The results are expressed as an IC50 which is the drug concentration required to inhibit cell proliferation (i.e. absorbance at 450 nm) to 50% of that of untreated control cells.

[2] = target: T1, human topoisomerase I (Homo sapiens, UniProt P11387); assay: Topoisomerase I activity (in vitro): compound-induced, topoisomerase I-mediated single strand breaks in PM2 DNA; assay type: biochemical; settings: purified human topoisomerase I (Topogen), 30 minutes at 37° C., median effective concentration for inducing single strand breaks, read-out: TOPO I EC50
T1 construct: purchased Topogen
T1 sequence (P11387 1-765): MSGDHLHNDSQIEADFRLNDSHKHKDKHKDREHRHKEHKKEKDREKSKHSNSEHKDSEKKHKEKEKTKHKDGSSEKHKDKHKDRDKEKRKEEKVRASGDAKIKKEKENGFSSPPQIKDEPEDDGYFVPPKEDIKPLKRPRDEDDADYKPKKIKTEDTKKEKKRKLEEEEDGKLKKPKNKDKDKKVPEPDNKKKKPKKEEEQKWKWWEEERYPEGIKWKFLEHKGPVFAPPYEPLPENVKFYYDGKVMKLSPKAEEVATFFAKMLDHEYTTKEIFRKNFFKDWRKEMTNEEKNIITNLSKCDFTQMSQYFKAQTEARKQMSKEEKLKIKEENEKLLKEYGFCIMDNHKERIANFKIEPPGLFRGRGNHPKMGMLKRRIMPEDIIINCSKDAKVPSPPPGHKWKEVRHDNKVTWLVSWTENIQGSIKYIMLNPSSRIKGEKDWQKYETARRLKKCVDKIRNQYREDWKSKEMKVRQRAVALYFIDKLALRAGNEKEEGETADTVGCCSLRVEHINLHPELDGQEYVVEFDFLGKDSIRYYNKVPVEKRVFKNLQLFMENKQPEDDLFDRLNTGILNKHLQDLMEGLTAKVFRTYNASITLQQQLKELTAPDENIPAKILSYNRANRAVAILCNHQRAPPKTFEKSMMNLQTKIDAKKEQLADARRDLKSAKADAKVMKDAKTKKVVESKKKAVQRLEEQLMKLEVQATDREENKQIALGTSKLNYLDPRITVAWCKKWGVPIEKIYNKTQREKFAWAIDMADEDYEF
Procedure: Topoisomerase I activity was measured as described below: The procedure for assaying compound-induced, topoisomerase I-mediated single strand breaks in DNA was essentially that described by Hsiang, et al., (J. Biol. Chem. 1985, 260,14873-14878). Samples dissolved in 100% DMSO as either […] or 10 mg/ml solutions, unless otherwise stated, were diluted in Tris-EDTA buffer. Marine bacteriophage PM2 DNA (Boehringer Mannheim) was also diluted in Tris-EDTA buffer to a concentration of 0.02 μg/μl. Different dilutions of compound being evaluated were mixed with diluted DNA and this mixture was added to 1000 unit (one unit of enzyme activity is defined as the amount capable of relaxing 100 ng of supercoiled DNA in approximately 30 minutes at 37° C.) aliquots of purified human topoisomerase I (Topogen) in 2×reaction buffer to start the reaction. The compound—DNA—enzyme mixture was incubated for 30 minutes at 37° C. before stopping the reaction with warm stop buffer containing sodium dodecyl sulfate and proteinase K (Sigma). These mixtures were allowed to incubate at 37° C. for another 10 minutes, at which time the mixtures were removed from the waterbath and extracted with a 24:1 mixture of chloroform/isoamyl alcohol. Following centrifugation, aliquots of the aqueous phases were placed in wells of a 0.9% agarose (SeaKem) gel in Tris-borate buffer containing 0.5 μg/ml of ethidium bromide and subjected to electrophbresis for 15 hours to separate the different topological isomers and nicked and broken DNAs. After destaining the gel in water, the ethidium bromide stained DNA reaction products were visualized by exposing the gel to UV irradiation. Negatives of photographs of the irradiated gels were scanned with a densitometer and areas under the peaks were calculated in order to obtain percent-single strand DNA break formation for each sample. A median effective concentration(EC50) was obtained for each compound by interpolation between points of the resulting dose-effect curve which defines the potency of the compound for its effect in inducing topoisomerase I-mediated single strand breaks in DNA.

EC50 [2] [µM] | melting point [°C] | Compound | IC50 [1] [µM]
0.01 | – | NN1C(=O)c2c(c3c4cc(F)ccc4n([C@@H]4OC5COC([C@@H]5O)[C@H]4O)c3c3[nH]c4ccc(F)cc4c23)C1=O (stereo partly drawn) [Example 4, 3,9-Difluoro-12,13-dihydro-13-[(3,6-anhydro)-β-D-glucopyranosyl]-5H-indolo[2,3-a]pyrrolo[3,4-c]carbazole-5,7(6-N-amino)-dione] | < 0.003
0.01 | – | O=C1c2c(c3c4cc(F)ccc4n(C4O[C@H]5[C@H](OC[C@H]5O)[C@H]4O)c3c3[nH]c4ccc(F)cc4c23)C(=O)N1O (stereo partly drawn) [Example 6, 3,9-Difluoro-12,13-dihydro-13-[(2,6-dihydroxy)-(4,8-dioxa)-bicyclo[3.3.0]oct-3-yl]-5H-indolo[2,3-a]pyrrolo[3,4-c]carbazole-5,7(6-N-hydroxyl)-dione] | 0.0141
15 | – | O=C1NC(=O)c2c1c1c3cc(F)c(F)cc3[nH]c1c1c2c2cc(F)c(F)cc2n1[C@@H]1O[C@@H]2CO[C@H]([C@H]1O)C2(F)F [Example 17, 2,3,9,10-Tetrafluoro-12-(3,6-anhydro-4-deoxy-4,4-difluoro-β-D-glucopyranosyl)-6,7,12,13-tetrahydro(5H)indolo[2,3-a]pyrrolo[3,4-c]carbazole-5,7-dione] | 0.24
0.018 | – | O=C1NC(=O)c2c1c1c3cc(F)ccc3[nH]c1c1c2c2cc(F)ccc2n1C1O[C@H](CO)[C@H]2O[C@H]2[C@H]1O (stereo partly drawn) [Example 8, 3,9-Difluoro-12,13-dihydro-13-[(3,4-anhydro)-β-D-glucopyranosyl]-5H-indolo[2,3-a]pyrrolo[3,4-c]carbazole-5,7(6H)-dione] | 0.0053
5.5 | > 300 | O=C1NC(=O)c2c1c1c3ccc(F)cc3[nH]c1c1c2c2ccc(F)cc2n1[C@@H]1O[C@@H]2CO[C@H]([C@H]1O)[C@@H]2O [Example 14, 12-(3,6-Anhydro-β-D-glucopyranosyl)-2,10-difluoro-12,13-dihydro-5H-indolo[2,3-a]pyrrolo[3,4-c]carbazole-5,7(6H)-dione] | 6.22
0.085 | – | O=C1NC(=O)c2c1c1c3cc(F)ccc3[nH]c1c1c2c2cc(F)ccc2n1[C@@H]1OC2COC(C2O)C1O (stereo partly drawn) [Example 1, 3,9-Difluoro-12,13-dihydro-13-[(3,6-anhydro)-β-D-glucopyranosyl]-5H-indolo[2,3-a]pyrrolo[3,4-c]carbazole-5,7(6H)-dione] | 0.093
0.36 | – | O=C1NC(=O)c2c1c1c3cc(F)ccc3[nH]c1c1c2c2cc(F)ccc2n1[C@H]1OC2COC([C@@H]2O)[C@H]1O (stereo partly drawn) [Example 2, 3,9-Difluoro-12,13-dihydro-13-[(3,6-anhydro)-α-D-glucopyranosyl]-5H-indolo[2,3-a]pyrrolo[3,4-c]carbazole-5,7(6H)-dione] | 0.0388
0.014 | – | O=C1c2c(c3c4cc(F)ccc4n([C@@H]4OC5COC([C@@H]5O)[C@H]4O)c3c3[nH]c4ccc(F)cc4c23)C(=O)N1O (stereo partly drawn) [Example 3, 3,9-Difluoro-12,13-dihydro-13-[(3,6-anhydro)-β-D-glucopyranosyl]-5H-indolo[2,3-a]pyrrolo[3,4-c]carbazole-5,7(6-N-hydroxyl)-dione] | 0.0146
– | – | O=C1NC(=O)c2c1c1c3cc(F)c(F)cc3[nH]c1c1c2c2cc(F)c(F)cc2n1[C@@H]1O[C@@H]2CO[C@@H](C2)[C@H]1O [Example 16, 2,3,9,10-Tetrafluoro-12-(3,6-anhydro-4-deoxy-β-D-glucopyranosyl)-6,7,12,13-tetrahydro(5H)indolo[2,3-a]pyrrolo[3,4-c]carbazole-5,7-dione] | 0.31
0.11 | > 305 | O=C1NC(=O)c2c1c1c3cc(F)ccc3sc1c1c2c2cc(F)ccc2n1[C@H]1O[C@@H]2CO[C@H]([C@H]1O)[C@@H]2O [Example 13, 3,9-Difluoro-13-(3,6-anhydro-α-D-glucopyranosyl)-5H,13H-benzo[β]thienyl[2,3-a]pyrrolo[3,4-c]carbazole-5,7(6H)-dione] | 0.0232
0.58 | – | O=C1NC(=O)c2c1c1c3cc(F)ccc3[nH]c1c1c2c2cc(F)ccc2n1C1O[C@H](CF)[C@@H](F)[C@H]2O[C@@H]12 (stereo partly drawn) [Example 7, 3,9-Difluoro-12,13-dihydro-13-[(2,3-anhydro)-(4,6-difluoro)-β-D-glucopyranosyl]-5H-indolo[2,3-a]pyrrolo[3,4-c]carbazole-5,7(6H)-dione] | 0.493
0.13 | – | O=C1NC(=O)c2c1c1c3cc(F)ccc3[nH]c1c1c2c2cc(F)ccc2n1[C@@H]1OC2COC(C2)C1O (stereo partly drawn) [Example 11, 3,9-Difluoro-12,13-dihydro-13-[(3,6-anhydro-4-deoxy)-β-D-glucopyranosyl]-5H-indolo[2,3-a]pyrrolo[3,4-c]carbazole-5,7(6H)-dione] | 0.07
0.58 | > 300 | O=C1NC(=O)c2c1c1c3ccc(F)cc3[nH]c1c1c2c2ccc(F)cc2n1[C@@H]1O[C@H](CO)[C@H]2O[C@H]2[C@H]1O [Example 12] | 0.107
0.18 | – | O=C1NC(=O)c2c1c1c3cc(F)ccc3[nH]c1c1c2c2cc(F)ccc2n1[C@@H]1O[C@@H]2CO[C@H]([C@H]1O)[C@H]2O [Example 18, 3,9-Difluoro-12,13-dihydro-13-[(3,6-anhydro)-β-D-galactopyranosyl]-5H-indolo[2,3-a]pyrrolo[3,4-c]carbazole-5,7(6H)-dione] | 0.123
